Source: paper PMC2248166, “Quantitative peptide binding motifs for 19 human and mouse MHC class I molecules derived using positional scanning combinatorial peptide libraries” (Immunome Research, 2008)

How the values were obtained:
Assay type in all cases: binding
HLA B*5801 = HLA B*5801 (Homo sapiens, UniProt P01889, A329T/C349S/D201E/D98Y/E176V/E187L/E204Q/E69T/G107R/I218V/I90N/K202T/L105A/L119I/N104I/N87E/Q89R/Q94S/R106L/R155S/R180L/R86G/S101N/S121R/S35A/S48A/T118I/V127L/V306I/V36M/Y140S/Y91M)
HLA B*1501 = HLA B*1501 (Homo sapiens, UniProt P01889, A329T/A93T/A95T/C349S/D201E/D98Y/E187L/E204Q/E69M/E70A/K202T/N87E/Q94N/R155S/R180W/S121R/S35A/S48A/V306I/V36M/Y140S/Y91S); experiment: biochemical
HLA A*3201 = HLA A*3201 (Homo sapiens, UniProt P04439, A270S/D101S/D185E/E176V/E277Q/F133L/G103R/G107R/G231S/H175R/I121M/I218V/I322F/K168Q/L105A/L300P/L318F/M331R/P208A/P217A/Q94H/R106L/R138Q/S129P/T104I/T323A/T345S/V100E/V321M/V358M); experiment: biochemical
H-2 D^b = H-2 D^b (Mus musculus, UniProt P01899)
Sequence of H-2 D^b (P01887 21-119): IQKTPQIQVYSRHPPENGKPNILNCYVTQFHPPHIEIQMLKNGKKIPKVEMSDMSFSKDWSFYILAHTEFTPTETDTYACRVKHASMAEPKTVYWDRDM
Sequence of H-2 D^b (P01899 25-362): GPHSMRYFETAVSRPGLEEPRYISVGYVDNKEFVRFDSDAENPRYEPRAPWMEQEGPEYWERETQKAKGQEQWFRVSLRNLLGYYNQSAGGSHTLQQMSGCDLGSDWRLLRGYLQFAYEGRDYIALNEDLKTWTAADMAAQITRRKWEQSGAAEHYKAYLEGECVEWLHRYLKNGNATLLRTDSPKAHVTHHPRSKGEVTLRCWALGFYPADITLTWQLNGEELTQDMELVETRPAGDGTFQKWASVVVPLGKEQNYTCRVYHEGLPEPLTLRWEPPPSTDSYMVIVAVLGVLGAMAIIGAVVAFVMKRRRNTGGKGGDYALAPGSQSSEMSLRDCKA

HLA B*5301 = HLA B*5301 (Homo sapiens, UniProt P01889, A329T/A93T/A95T/C349S/D201E/D98Y/E176V/E187L/E204Q/E69T/G107R/I218V/K202T/L105A/L119I/N104I/Q94N/R106L/R155S/R180L/S101N/S121R/S35A/S48A/T118I/V127L/V306I/V36M/Y140S/Y91F)
HLA A*3001 = HLA A*3001 (Homo sapiens, UniProt P04439, D140H/D185E/E176W/F33S/G80R/H175R/K168Q/R138E/R41S); experiment: biochemical
H-2 D^d = H-2 D^d (Mus musculus, UniProt P01900)
Sequence of H-2 D^d (P01900 whole entry, looked up): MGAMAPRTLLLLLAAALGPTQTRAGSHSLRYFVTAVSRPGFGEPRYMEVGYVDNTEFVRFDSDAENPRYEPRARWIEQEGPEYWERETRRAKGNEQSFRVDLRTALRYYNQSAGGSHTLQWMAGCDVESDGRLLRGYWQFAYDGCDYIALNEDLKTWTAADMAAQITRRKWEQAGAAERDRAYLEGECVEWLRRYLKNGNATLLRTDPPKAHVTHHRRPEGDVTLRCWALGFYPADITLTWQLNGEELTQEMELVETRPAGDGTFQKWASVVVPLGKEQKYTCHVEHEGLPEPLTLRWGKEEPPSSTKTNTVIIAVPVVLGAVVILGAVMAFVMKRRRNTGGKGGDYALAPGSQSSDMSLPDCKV

HLA B*5401 = HLA B*5401 (Homo sapiens, UniProt P01889, A329T/C349S/D138N/D201E/E176V/E187T/E204Q/E69G/I76V/K202T/L119W/R155S/R180L/S121T/S35A/S48A/V127L/V306I/V36M/Y140L)
HLA B*1503 = HLA B*1503 (Homo sapiens, UniProt P01889, A329T/A93T/A95T/C349S/D201E/D98Y/E187L/E204Q/K202T/N87E/Q94N/R155S/R180L/S121R/S35A/V306I/V36M/Y140S/Y91S); experiment: biochemical
HLA A*6802 = HLA A*6802 (Homo sapiens, UniProt P04439, A269V/D140Y/D185E/E176V/E277Q/E87N/F33Y/G231S/I121R/I166T/I218V/L180W/L300P/L318F/N151K/P208A/P217A/Q86R/R138H/R169H/S129P/T345S/V36M)
HLA B*5802 = HLA B*5802 (Homo sapiens, UniProt P01889, A329T/C349S/D201E/D98Y/E176V/E187L/E204Q/E69T/G107R/I218V/I90N/K202T/L105A/N104I/N87E/Q89R/Q94S/R106L/R155S/R180L/R86G/S101N/S121W/S35A/S48A/V127L/V306I/V36M/Y140S/Y91M)
HLA B*5101 = HLA B*5101 (Homo sapiens, UniProt P01889, A329T/A93T/A95T/C349S/D138N/D201E/D98Y/E187L/E204Q/E69T/G107R/I218V/K202T/L105A/L119W/N104I/Q94N/R106L/R155S/R180L/S101N/S121T/S35A/S48A/V306I/V36M/Y195H/Y91F)
HLA B*0801 = HLA B*0801 (Homo sapiens, UniProt P01889, A93T/A95T/D138N/E176V/E187T/K202T/Q94N/R180D/S35A/V36M/Y33D/Y91F); experiment: biochemical
H-2 K^d = H-2 K^d (Mus musculus, UniProt P01902)
Sequence of H-2 K^d (P01887 21-119): as the sequence (P01887 21-119) above
Sequence of H-2 K^d (P01902 22-368): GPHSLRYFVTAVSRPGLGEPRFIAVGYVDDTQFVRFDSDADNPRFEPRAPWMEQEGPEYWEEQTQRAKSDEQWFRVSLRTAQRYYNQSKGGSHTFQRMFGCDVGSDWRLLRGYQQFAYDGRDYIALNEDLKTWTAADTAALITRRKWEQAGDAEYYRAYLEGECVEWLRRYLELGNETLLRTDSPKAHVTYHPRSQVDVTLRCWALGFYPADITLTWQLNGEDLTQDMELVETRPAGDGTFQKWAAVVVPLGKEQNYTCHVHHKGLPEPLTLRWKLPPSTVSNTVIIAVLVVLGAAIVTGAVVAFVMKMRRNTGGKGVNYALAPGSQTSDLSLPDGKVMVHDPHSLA

HLA B*3501 = HLA B*3501 (Homo sapiens, UniProt P01889, A329T/A93T/A95T/C349S/D201E/D98Y/E176V/E187L/E204Q/E69T/I218V/K202T/L119I/Q94N/R155S/R180L/S121R/S35A/S48A/T118I/V127L/V306I/V36M/Y140S/Y91F)
H-2 K^k = H-2 K^k (Mus musculus, UniProt P04223)
Sequence of H-2 K^k (P01887 21-119): as the sequence (P01887 21-119) above
Sequence of H-2 K^k (P04223 22-369): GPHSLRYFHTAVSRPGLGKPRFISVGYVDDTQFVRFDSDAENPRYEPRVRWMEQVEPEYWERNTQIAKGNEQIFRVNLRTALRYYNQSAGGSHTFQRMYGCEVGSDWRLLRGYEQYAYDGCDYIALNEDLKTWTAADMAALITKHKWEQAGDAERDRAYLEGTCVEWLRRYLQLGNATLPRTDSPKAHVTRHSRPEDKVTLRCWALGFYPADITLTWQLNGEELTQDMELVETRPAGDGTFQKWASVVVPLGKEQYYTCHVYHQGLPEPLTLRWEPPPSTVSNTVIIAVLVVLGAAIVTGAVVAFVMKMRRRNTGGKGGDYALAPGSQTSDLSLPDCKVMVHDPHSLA

| Sequence | Normalized average relative binding affinity(ARB) (HLA B*5801) | Normalized average relative binding affinity(ARB) (HLA B*1501) | Normalized average relative binding affinity(ARB) (HLA A*3201) | Normalized average relative binding affinity(ARB) (H-2 D^b) | Normalized average relative binding affinity(ARB) (HLA B*5301) | Normalized average relative binding affinity(ARB) (HLA A*3001) | Normalized average relative binding affinity(ARB) (H-2 D^d) | Normalized average relative binding affinity(ARB) (HLA B*5401) | Normalized average relative binding affinity(ARB) (HLA B*1503) | Normalized average relative binding affinity(ARB) (HLA A*6802) | Normalized average relative binding affinity(ARB) (HLA B*5802) | Normalized average relative binding affinity(ARB) (HLA B*5101) | Normalized average relative binding affinity(ARB) (HLA B*0801) | Normalized average relative binding affinity(ARB) (H-2 K^d) | Normalized average relative binding affinity(ARB) (HLA B*3501) | Normalized average relative binding affinity(ARB) (H-2 K^k) |
| --- | --- | --- | --- | --- | --- | --- | --- | --- | --- | --- | --- | --- | --- | --- | --- | --- |
| XXXXMXXXX [3064.0091] | 0.092 | 0.41 | 0.31 | 0.086 | 0.38 | 0.33 | 0.19 | 0.72 | 0.064 | 0.78 | 0.42 | 0.45 | 0.078 | 0.60 | 0.98 | 0.24 |
| XXXXNXXXX [3064.0092] | 0.13 | 0.56 | 0.16 | 1.0 | 0.17 | 0.12 | 0.19 | 0.34 | 0.26 | 0.30 | 0.31 | 0.40 | 0.037 | 0.21 | 1.0 | 0.090 |
| XXXXPXXXX [3064.0093] | 0.19 | 0.89 | 0.16 | 0.038 | 0.14 | 0.53 | 0.023 | 0.51 | 0.46 | 0.16 | 0.075 | 0.50 | 0.011 | 0.094 | 0.37 | 0.072 |
| XXXXQXXXX [3064.0094] | 0.19 | 1.0 | 0.38 | 0.023 | 0.12 | 0.20 | 0.15 | 0.40 | 0.20 | 0.077 | 0.063 | 0.29 | 0.037 | 0.15 | 0.28 | 0.099 |
| XXXXRXXXX [3064.0095] | 0.15 | 0.64 | 0.27 | 0.020 | 0.11 | 0.80 | 1.0 | 0.21 | 0.28 | 0.19 | 0.20 | 0.49 | 1.0 | 0.023 | 0.23 | 0.072 |
| XXXXSXXXX [3064.0096] | 0.31 | 0.71 | 0.20 | 0.079 | 0.16 | 1.0 | 0.21 | 0.18 | 0.47 | 0.34 | 0.063 | 0.35 | 0.065 | 1.0 | 0.27 | 0.18 |
| XXXXTXXXX [3064.0097] | 0.33 | 0.62 | 0.062 | 0.018 | 0.11 | 0.18 | 0.18 | 0.085 | 0.43 | 0.044 | 0.16 | 0.51 | 0.011 | 0.42 | 0.21 | 0.16 |
| XXXXVXXXX [3064.0098] | 1.0 | 0.56 | 0.47 | 0.021 | 0.18 | 0.35 | 0.25 | 0.042 | 0.24 | 0.51 | 0.87 | 0.36 | 0.019 | 0.24 | 0.22 | 0.18 |
